The results in this text go back to EP4745153A1, “GLP-1, GIP AND GCG RECEPTOR […] USE THEREOF” (Jiangsu Hengrui Pharmaceuticals Co., Ltd., priority 2023, dated 2025).

The target of one data set is T1, human GIPR (Homo sapiens, UniProt P48546).
T1 construct: expressed in transfected cells; host or cells: CHO-K1 clonal cell line
T1 sequence (P48546 22-466): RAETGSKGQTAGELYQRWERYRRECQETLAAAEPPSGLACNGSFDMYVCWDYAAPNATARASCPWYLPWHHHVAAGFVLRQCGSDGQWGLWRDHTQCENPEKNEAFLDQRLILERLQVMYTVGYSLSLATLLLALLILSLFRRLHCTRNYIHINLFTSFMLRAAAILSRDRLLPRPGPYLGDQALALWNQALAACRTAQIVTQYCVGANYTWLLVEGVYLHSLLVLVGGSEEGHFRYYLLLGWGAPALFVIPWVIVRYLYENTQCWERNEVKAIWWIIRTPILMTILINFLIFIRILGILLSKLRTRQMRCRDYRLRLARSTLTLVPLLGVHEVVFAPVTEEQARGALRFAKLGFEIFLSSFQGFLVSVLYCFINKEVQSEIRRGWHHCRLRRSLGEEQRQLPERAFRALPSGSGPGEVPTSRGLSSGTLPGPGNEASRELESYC
Briefly: cAMP HTRF agonist activity assay in CHO-K1 cells expressing GIPR. Further: 5% FBS, 0.1% Casein. It counts as cell-based. Particulars: read-out: Activity against human GIPR (EC50 nM). The procedure, abridged:
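cAMP accumulation measured by competitive HTRF after 30 min incubation of polypeptides with 5000 receptor-expressing CHO-K1 cells/well at 37°C. Percent of maximal response versus concentration fitted to a four-parameter logistic to give relative EC50.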
Background: In TR-FRET formats the signal depends on donor and acceptor labels being close together.

The next data set addresses T2, human GLP-1R (Homo sapiens, UniProt P43220).
T2 construct: expressed in transfected cells; host or cells: CHO-K1 clonal cell line
The experiment in a line: cAMP HTRF agonist activity assay in CHO-K1 cells expressing GLP-1R. Further: 5% FBS, 0.1% Casein. Particulars: read-out: Activity against human GLP-1R (EC50 nM). It counts as cell-based. On the procedure:
(§1) Functional activity was determined in CHO-K1 clonal cell lines expressing GIPR, GLP-1R, and GCGR. […] Each recipient cell (5000 cells/well) was added to an SV 96-well plate (Cisbio, 66PL96025) and incubated with the prepared polypeptide at 37°Cfor 30 min. The resulting increase in intracellular cAMP was quantitatively measured using the cAMP-GS dynamic HTRF assay kit (Cisbio, 62AM4PEJ). Briefly, the intracellular cAMP levels were determined by adding cAMP-d2 conjugate in cell lysis buffer, followed by the antibody anti-cAMP-Eu cryptate (also in cell lysis buffer).
(§2) Using the maximum response percentage vs. the added polypeptide concentration, the relative EC50 values were derived through nonlinear regression analysis and fitted to a four-parameter logarithmic equation. For specific data, refer to Tables 7-1 to 7-8 below. […]

A further data set deals with T3, human GCGR (Homo sapiens, UniProt P47871).
T3 construct: expressed in transfected cells; host or cells: CHO-K1 clonal cell line
The experiment in a line: cAMP HTRF agonist activity assay in CHO-K1 cells expressing GCGR. It counts as cell-based. On the procedure: as §1, §2

Data set [1] is described as follows: Pharmacokinetics in mice after single intravenous injection. Set-up: species or system C57 mice. Particulars: male, C57, mouse, in vivo, iv. In short, it runs like this:
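Plasma concentrations were measured by positive-mode ESI LC-MS/MRM, with verapamil as internal standard, at time points from 5 min to 72 h. Samples came from three male C57 mice per compound, aged 4-6 weeks, dosed once intravenously with 200 nmol/kg in 1×PBS; PK parameters were derived with PKSolver.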

Starred links: 1 amine or outer side, 2 acyl side, 3 side chain; linkers in the order of their positions; H or OH if unused. Non-standard residues stand in square brackets, D forms with d. Residues, ends and D or L forms follow the SMILES beside them. Groups on a side chain read outwards from the residue. ξ: configuration not given here. *: point of attachment. C20 diacid = O=C(O)CCCCCCCCCCCCCCCCCCC(=O)*; γGlu = O=C(O)[C@H](CCC(=O)[*:2])N[*:1]; αMeL = CC(C)C[C@](C)(N)C(=O)O; αMeK = C[C@](N)(CCCCN)C(=O)O; ξIva = CCC(C)(N)C(=O)O; AEEA = NCCOCCOCC(=O)O; Aib = CC(C)(N)C(=O)O

T2 sequence (P43220 24-463): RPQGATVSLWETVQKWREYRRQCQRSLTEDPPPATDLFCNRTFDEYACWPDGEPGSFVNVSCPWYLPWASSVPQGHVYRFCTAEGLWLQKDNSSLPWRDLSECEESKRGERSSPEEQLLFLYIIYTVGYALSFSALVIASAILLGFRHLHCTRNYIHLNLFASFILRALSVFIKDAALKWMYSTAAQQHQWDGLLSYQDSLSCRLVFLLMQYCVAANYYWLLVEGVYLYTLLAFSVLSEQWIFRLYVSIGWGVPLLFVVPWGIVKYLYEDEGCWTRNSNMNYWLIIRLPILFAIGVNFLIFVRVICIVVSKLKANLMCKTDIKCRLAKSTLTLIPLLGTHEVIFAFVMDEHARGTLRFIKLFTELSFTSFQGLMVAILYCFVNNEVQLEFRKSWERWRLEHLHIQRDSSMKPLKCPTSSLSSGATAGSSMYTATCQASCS
T3 sequence (P47871 26-477): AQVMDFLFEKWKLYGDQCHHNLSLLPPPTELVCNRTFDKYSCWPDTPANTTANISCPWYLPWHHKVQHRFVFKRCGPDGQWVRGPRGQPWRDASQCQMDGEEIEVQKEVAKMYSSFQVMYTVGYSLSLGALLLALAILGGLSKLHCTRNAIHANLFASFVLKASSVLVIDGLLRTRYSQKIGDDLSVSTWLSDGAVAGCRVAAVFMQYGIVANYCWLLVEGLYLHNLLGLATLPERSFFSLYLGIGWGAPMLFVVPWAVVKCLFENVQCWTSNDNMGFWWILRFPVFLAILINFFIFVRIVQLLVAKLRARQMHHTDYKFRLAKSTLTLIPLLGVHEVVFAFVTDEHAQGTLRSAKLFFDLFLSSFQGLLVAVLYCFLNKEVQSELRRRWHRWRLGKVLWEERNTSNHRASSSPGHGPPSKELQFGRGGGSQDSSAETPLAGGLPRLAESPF

Usually EC50 stands for the concentration needed to bring the measured effect to its halfway point. As for `CC[C@H](C)[C@H](NC(=O)[C@H](CO)NC(=O)[C@H](CC(C)C)NC(=O)[C@H](CC(=O)O)NC(=O)[C@H](CO)NC(=O)[C@@H](NC(=O)[C@H](Cc1ccccc1)NC(=O)[C@@H](NC(=O)CNC(=O)[C@H](Cc1c[nH]cn1)NC(=O)C(C)(C)NC(=O)[C@@H](N)Cc1c[nH]cn1)[C@@H](C)O)[C@@H](C)O)C(=O)N[C@@H](CC(C)C)C(=O)N[C@@H](CC(C)C)C(=O)N[C@@H](CCC(=O)O)C(=O)N[C@@H](CCCCNC(=O)COCCOCCNC(=O)COCCOCCNC(=O)CC[C@H](NC(=O)CCCCCCCCCCCCCCCCCCC(=O)O)C(=O)O)C(=O)N[C@@H](CCCCN)C(=O)N[C@@H](C)C(=O)N[C@@H](C)C(=O)NC1(C(=O)N[C@@H](CCC(=O)O)C(=O)N[C@@H](Cc2ccccc2)C(=O)N[C@H](C(=O)N[C@@H](CCC(=O)O)C(=O)N[C@@H](Cc2c[nH]c3ccccc23)C(=O)N[C@@H](CC(C)C)C(=O)N[C@@H](CC(C)C)C(=O)N[C@@H](C)C(=O)N[C@H](CCC(=O)O)C(=O)NCC(=O)N2CCC[C@H]2C(=O)N[C@@H](CO)C(=O)N[C@@H](CO)C(=O)NCC(=O)N[C@@H](C)C(=O)N2CCC[C@H]2C(=O)N2CCC[C@H]2C(=O)N2CCC[C@H]2C(=O)N[C@@H](CO)C(N)=O)C(C)C)CCC1` [Compound 0147], the EC50 came out at 0.005 nM on human GIPR and 0.035 nM on human GLP-1R.

Compound `CCC(C)(NC(=O)[C@H](C)NC(=O)[C@H](C)NC(=O)[C@H](CCCCN)NC(=O)[C@H](CCCCNC(=O)COCCOCCNC(=O)COCCOCCNC(=O)CC[C@H](NC(=O)CCCCCCCCCCCCCCCCCCC(=O)O)C(=O)O)NC(=O)[C@H](CCC(=O)O)NC(=O)[C@H](CC(C)C)NC(=O)[C@H](CC(C)C)NC(=O)[C@](C)(CCCCN)NC(=O)[C@H](CO)NC(=O)[C@H](Cc1ccc(O)cc1)NC(=O)[C@H](CC(=O)O)NC(=O)[C@H](CO)NC(=O)[C@@H](NC(=O)[C@H](Cc1ccccc1)NC(=O)[C@@H](NC(=O)CNC(=O)[C@H](CCC(N)=O)NC(=O)C(C)(C)NC(=O)[C@@H](N)Cc1ccc(O)cc1)[C@@H](C)O)[C@@H](C)O)C(=O)N[C@@H](CCC(=O)O)C(=O)N[C@@H](Cc1ccccc1)C(=O)N[C@H](C(=O)N[C@@H](CCC(=O)O)C(=O)N[C@@H](Cc1c[nH]c2ccccc12)C(=O)N[C@@H](CC(C)C)C(=O)N[C@@H](CC(C)C)C(=O)N[C@@H](C)C(=O)NCC(=O)NCC(=O)N1CCC[C@H]1C(=O)N[C@@H](CO)C(=O)N[C@@H](CO)C(=O)NCC(=O)N[C@@H](C)C(=O)N1CCC[C@H]1C(=O)N1CCC[C@H]1C(=O)N1CCC[C@H]1C(=O)N[C@@H](CO)C(N)=O)C(C)C` (stereo partly shown) [Compound 0127] (H-Y[Aib]QGTFTSDYS[αMeK]LLEK([AEEA-AEEA-γGlu-C20 diacid])KAA[ξIva]EFVEWLLAGGPSSGAPPPS-NH2) showed an EC50 on human GCGR of 0.037 nM.

One may read the clearance as a measure of how efficiently the substance is removed, as volume per time. As a reminder, the half-life is the time needed for the level to fall by half in the phase considered. Low values mean fast loss, high ones slow loss. Regarding `CC[C@H](C)[C@H](NC(=O)[C@H](CO)NC(=O)[C@H](Cc1ccc(O)cc1)NC(=O)[C@H](CC(=O)O)NC(=O)[C@H](CO)NC(=O)[C@@H](NC(=O)[C@H](Cc1ccccc1)NC(=O)[C@@H](NC(=O)CNC(=O)[C@H](Cc1c[nH]cn1)NC(=O)C(C)(C)NC(=O)[C@@H](N)Cc1c[nH]cn1)[C@@H](C)O)[C@@H](C)O)C(=O)N[C@@](C)(CC(C)C)C(=O)N[C@@H](CC(C)C)C(=O)N[C@@H](CCC(=O)O)C(=O)N[C@@H](CCCCNC(=O)COCCOCCNC(=O)COCCOCCNC(=O)CC[C@H](NC(=O)CCCCCCCCCCCCCCCCCCC(=O)O)C(=O)O)C(=O)N[C@@H](CCCCN)C(=O)N[C@@H](C)C(=O)N[C@@H](C)C(=O)NC(C)(CC)C(=O)N[C@@H](CCC(=O)O)C(=O)N[C@@H](Cc1ccccc1)C(=O)N[C@H](C(=O)N[C@@H](CCC(=O)O)C(=O)N[C@@H](Cc1c[nH]c2ccccc12)C(=O)N[C@@H](CC(C)C)C(=O)N[C@@H](CC(C)C)C(=O)N[C@@H](C)C(=O)NCC(=O)NCC(=O)N1CCC[C@H]1C(=O)N[C@@H](CO)C(=O)N[C@@H](CO)C(=O)NCC(=O)N[C@@H](C)C(=O)N1CCC[C@H]1C(=O)N1CCC[C@H]1C(=O)N1CCC[C@H]1C(=O)N[C@@H](CO)C(N)=O)C(C)C` (stereo partly shown) [Compound 0137] (H-H[Aib]HGTFTSDYSI[αMeL]LEK([AEEA-AEEA-γGlu-C20 diacid])KAA[ξIva]EFVEWLLAGGPSSGAPPPS-NH2), the EC50 on human GIPR is 0.001 nM. Moreover, the EC50 at human GLP-1R is 0.013 nM. Moreover, in data set [1], the clearance came to 0.163 mL/min/kg and the half-life was 8.8 h.

On to `CC[C@H](C)[C@H](NC(=O)[C@](C)(CCCCN)NC(=O)[C@H](CO)NC(=O)[C@H](Cc1ccc(O)cc1)NC(=O)[C@H](CC(=O)O)NC(=O)[C@H](CO)NC(=O)[C@@H](NC(=O)[C@H](Cc1ccccc1)NC(=O)[C@@H](NC(=O)CNC(=O)[C@H](Cc1c[nH]cn1)NC(=O)C(C)(C)NC(=O)[C@@H](N)Cc1c[nH]cn1)[C@@H](C)O)[C@@H](C)O)C(=O)N[C@@H](CC(C)C)C(=O)N[C@@H](CCC(=O)O)C(=O)N[C@@H](CCCCNC(=O)COCCOCCNC(=O)COCCOCCNC(=O)CC[C@H](NC(=O)CCCCCCCCCCCCCCCCCCC(=O)O)C(=O)O)C(=O)N[C@@H](CCC(N)=O)C(=O)N[C@@H](C)C(=O)N[C@@H](C)C(=O)NC(C)(CC)C(=O)N[C@@H](CCC(=O)O)C(=O)N[C@@H](Cc1ccccc1)C(=O)N[C@H](C(=O)N[C@@H](CCC(=O)O)C(=O)N[C@@H](Cc1c[nH]c2ccccc12)C(=O)N[C@@H](CC(C)C)C(=O)N[C@@H](CC(C)C)C(=O)N[C@@H](C)C(=O)NCC(=O)NCC(=O)N1CCC[C@H]1C(=O)N[C@@H](CO)C(=O)N[C@@H](CO)C(=O)NCC(=O)N[C@@H](C)C(=O)N1CCC[C@H]1C(=O)N1CCC[C@H]1C(=O)N1CCC[C@H]1C(=O)N[C@@H](CO)C(N)=O)C(C)C` (stereo partly shown) [Compound 0130] (H-H[Aib]HGTFTSDYS[αMeK]ILEK([AEEA-AEEA-γGlu-C20 diacid])QAA[ξIva]EFVEWLLAGGPSSGAPPPS-NH2), for which a half-maximal effect at human GCGR (EC50) was put at 0.03 nM.

`CC[C@H](C)[C@H](NC(=O)[C@H](CO)NC(=O)[C@H](CC(C)C)NC(=O)[C@H](CC(=O)O)NC(=O)[C@H](CO)NC(=O)[C@@H](NC(=O)[C@H](Cc1ccccc1)NC(=O)[C@@H](NC(=O)CNC(=O)[C@H](Cc1c[nH]cn1)NC(=O)C(C)(C)NC(=O)[C@@H](N)Cc1c[nH]cn1)[C@@H](C)O)[C@@H](C)O)C(=O)N[C@@H](CC(C)C)C(=O)N[C@@H](CC(C)C)C(=O)N[C@@H](CCC(=O)O)C(=O)N[C@@H](CCCCNC(=O)COCCOCCNC(=O)COCCOCCNC(=O)CC[C@H](NC(=O)CCCCCCCCCCCCCCCCCCC(=O)O)C(=O)O)C(=O)N[C@@H](CCCCN)C(=O)N[C@@H](C)C(=O)N[C@@H](C)C(=O)NC1(C(=O)N[C@@H](CCC(=O)O)C(=O)N[C@@H](Cc2ccccc2)C(=O)N[C@H](C(=O)N[C@@H](CCC(=O)O)C(=O)N[C@@H](Cc2c[nH]c3ccccc23)C(=O)N[C@@H](CC(C)C)C(=O)N[C@@H](CC(C)C)C(=O)N[C@@H](C)C(=O)N[C@H](CCC(=O)O)C(=O)NCC(=O)N2CCC[C@H]2C(=O)N[C@@H](CO)C(=O)N[C@@H](CO)C(=O)NCC(=O)N[C@@H](C)C(=O)N2CCC[C@H]2C(=O)N2CCC[C@H]2C(=O)N2CCC[C@H]2C(=O)N[C@@H](CO)C(N)=O)C(C)C)CC1` [Compound 0146]: the EC50 was 0.009 nM on human GIPR and 0.033 nM on human GLP-1R.
